Assay results taken from US5821386A (priority 1997, dated 1998).
Several values for one entry are separate records, joined by “and”; a condition that tells them apart may be missing. Identical values can stand only once. Entries after “also recorded” stand apart in the source; their conditions may differ. Like-named read-outs stand apart in the source and are kept apart here.

Key:
[1] = molecular target: T1, human norepinephrine transporter (Homo sapiens, UniProt P23975); assay: biochemical; assay type: binding
T1 construct: expressed in transfected cells; host or cells: HEK cells (HEK-hNET)
T1 sequence (P23975 whole entry): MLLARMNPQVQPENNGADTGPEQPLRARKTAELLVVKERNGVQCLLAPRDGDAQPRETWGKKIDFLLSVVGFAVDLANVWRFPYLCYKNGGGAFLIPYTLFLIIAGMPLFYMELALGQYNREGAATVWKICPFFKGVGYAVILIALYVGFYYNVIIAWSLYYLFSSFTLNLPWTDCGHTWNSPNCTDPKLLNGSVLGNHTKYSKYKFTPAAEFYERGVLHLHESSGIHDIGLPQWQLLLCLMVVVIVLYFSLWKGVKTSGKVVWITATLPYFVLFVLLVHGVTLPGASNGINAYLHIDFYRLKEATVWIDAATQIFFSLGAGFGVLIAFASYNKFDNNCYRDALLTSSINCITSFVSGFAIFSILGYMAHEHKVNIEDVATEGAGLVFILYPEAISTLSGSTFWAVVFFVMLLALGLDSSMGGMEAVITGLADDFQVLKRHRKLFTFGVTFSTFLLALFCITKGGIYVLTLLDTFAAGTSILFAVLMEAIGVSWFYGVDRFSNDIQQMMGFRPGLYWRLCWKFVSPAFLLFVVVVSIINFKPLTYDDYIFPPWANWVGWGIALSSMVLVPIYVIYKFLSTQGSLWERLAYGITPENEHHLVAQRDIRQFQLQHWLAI

[2] = molecular target: T2, human serotonin transporter (Homo sapiens, UniProt P31645); assay: [125I]RTI-55 binding to serotonin transporter, HEK-hSERT cells
T2 construct: expressed in transfected cells; host or cells: HEK cells (HEK-hSERT)
T2 sequence (P31645 whole entry): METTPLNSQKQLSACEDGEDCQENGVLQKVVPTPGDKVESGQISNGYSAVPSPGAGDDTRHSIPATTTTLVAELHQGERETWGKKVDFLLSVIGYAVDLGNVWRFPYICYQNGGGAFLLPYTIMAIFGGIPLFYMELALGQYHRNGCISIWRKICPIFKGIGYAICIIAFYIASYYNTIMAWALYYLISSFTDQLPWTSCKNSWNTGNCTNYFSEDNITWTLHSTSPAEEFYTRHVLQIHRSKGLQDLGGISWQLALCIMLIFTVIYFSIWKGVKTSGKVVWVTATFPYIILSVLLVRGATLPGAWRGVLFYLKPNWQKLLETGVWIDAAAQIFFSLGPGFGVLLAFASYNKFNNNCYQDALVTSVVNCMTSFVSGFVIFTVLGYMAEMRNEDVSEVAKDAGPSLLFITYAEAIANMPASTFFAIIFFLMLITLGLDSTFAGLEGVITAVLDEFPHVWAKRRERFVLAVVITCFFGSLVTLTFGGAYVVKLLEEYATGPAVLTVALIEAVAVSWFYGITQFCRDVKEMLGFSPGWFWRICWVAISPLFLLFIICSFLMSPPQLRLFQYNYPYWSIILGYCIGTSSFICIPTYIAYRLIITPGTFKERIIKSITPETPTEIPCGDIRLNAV

[3] = molecular target: T3, human dopamine transporter (Homo sapiens, UniProt Q01959); assay: [3H]dopamine uptake by C6-hDAT cells; conditions: for IC50: Inhibition of DA uptake, IC50, C6-hDAT cells; for DA uptake/binding: ratio
T3 sequence (Q01959 whole entry): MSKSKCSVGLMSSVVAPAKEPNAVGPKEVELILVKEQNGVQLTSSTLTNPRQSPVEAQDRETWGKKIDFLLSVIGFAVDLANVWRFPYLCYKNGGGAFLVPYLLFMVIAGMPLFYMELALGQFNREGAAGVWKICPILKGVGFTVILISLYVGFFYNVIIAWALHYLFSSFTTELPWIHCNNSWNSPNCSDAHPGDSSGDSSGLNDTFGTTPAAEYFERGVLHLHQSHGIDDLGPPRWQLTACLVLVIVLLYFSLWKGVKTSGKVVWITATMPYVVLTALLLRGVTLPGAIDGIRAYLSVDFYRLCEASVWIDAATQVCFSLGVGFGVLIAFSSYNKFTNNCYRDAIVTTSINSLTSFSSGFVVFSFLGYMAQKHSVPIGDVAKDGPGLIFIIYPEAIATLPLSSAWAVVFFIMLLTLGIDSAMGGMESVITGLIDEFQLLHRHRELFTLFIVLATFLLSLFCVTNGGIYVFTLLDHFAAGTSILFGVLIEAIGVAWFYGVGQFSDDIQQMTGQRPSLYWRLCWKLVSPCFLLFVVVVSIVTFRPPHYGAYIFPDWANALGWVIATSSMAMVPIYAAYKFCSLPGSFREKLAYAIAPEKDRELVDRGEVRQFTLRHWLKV
Procedure: Drugs (10 mM stock solution) were dissolved in DMSO. The final DMSO concentration in the assay is 0.01 percent. Pipetting was performed with a Biomek 2000 robotic work station.
Uptake was initiated with the addition of [3H]DA (20 nM, specific acitivity 20-53 Ci/mmol) in a final volume of 500 μl. Mazindol (5 μM) was used to define nonspecific uptake. Cells were preincubated for 10 minutes, with drug before addition of neurotransmitter. Uptake was terminated after a 2 minute incubation by removing buffer, and the plate was placed on ice and washed twice with 1 ml ice cold phosphate-buffered saline.

[4] = molecular target: T1, human norepinephrine transporter; assay: cell-based; assay type: cell-based
[5] = molecular target: T3, human dopamine transporter; assay: [125I]RTI-55 binding to dopamine transporter, C6-hDAT cells; set-up: expressed in transfected cells; host or cells: C6 cells (C6-hDAT); conditions: read-out: Binding to DA cloned transporter, [I125]RTI-55 Ki
[6] = Dose response study of induced locomotor stimulation (Example 2, Table I); assay type: in vivo, male Swiss-Webster mice; conditions: IP; for Maximal Effect Relative to Cocaine / ED50: Table I; for ED50: Mus musculus, 30-60 minutes period, read-out: ED50 (dose producing 1/2 maximal stimulant activity)
[7] = molecular target: T2, human serotonin transporter; assay: [3H]serotonin uptake by HEK-hSERT cells; assay type: cell-based; conditions: for inhibition of serotonin reuptake: Example 5; for IC50: Inhibition of 5HT uptake, IC50, HEK-hSERT cells; for 5HT uptake/binding: ratio; for 5HT/DA uptake: selectivity ratio
[8] = Eight hour time course of locomotor stimulation, cocaine alone and Compound 2 alone (Example 4); conditions: for p, two-way ANOVA, effect of Treatment: horizontal activity counts/10 min, eight hours; for p, one-way ANOVA, effect of Treatment: log10 horizontal activity counts
[9] = Interaction study: antagonism of cocaine-induced locomotor stimulation (Example 3); conditions: for effect on the stimulant effect of cocaine (words): IP, 20 mg/kg cocaine, mice; for p, one-way ANOVA, overall effect for treatment groups: log10 horizontal activity counts, 0-30 minutes
[10] = human, hek-hnet and c6-hdat cells
[11] = HEK-hNET cells, read-out: Binding to NE cloned transporter, [I125]RTI-55 Ki
[12] = HEK-hNET cells, read-out: Inhibition of NE uptake, IC50
[13] = IP, 10, 20 and 40 mg/kg cocaine

Row | SMILES | Ki [2] | IC50 [3] | DA uptake/binding [3] | NE/DA uptake [4, 10] | NE uptake/binding ([4]; human, hek-hnet cells) | Ki [5] | Maximal Effect Relative to Cocaine [6] | ED50 ([6]; mice) | IC50 [7] | 5HT uptake/binding [7] | 5HT/DA uptake [7] | IC50 [4, 12] | effect on the stimulant effect of cocaine (words) ([9]; 20 mg/kg) | p, one-way ANOVA, overall effect for treatment groups [9] | also measured
1 | CN(C)C1CC(c2ccc(Cl)c(Cl)c2)c2ccccc21 (stereo not shown) [Compound 1] | 3.1 ± 1.2 nM | 190 ± 20 nM | 6.6 | 0.38 | 0.19 | 29 ± 6 nM | 0.82 | 4.88 mg/kg | 6.7 ± 2.2 nM | 2.2 | 0.035 |  |  |  | Ki ([1]; Binding to NE cloned transporter, [I125]RTI-55 Ki): 370 ± 60 nM; inhibition of norepinephrine reuptake [4]: selectively inhibits serotonin and norepinephrine reuptake; IC50 ([4]; Inhibition of NE uptake, IC50): 72 ± 40 nM; inhibition of serotonin reuptake [7]: selectively inhibits serotonin and norepinephrine reuptake
2 | CCCN(C)C1CC(c2ccc(Cl)c(Cl)c2)c2ccccc21 (stereo not shown) [Compound 2] | 44 ± 6 nM | 340 nM and 190 nM | 1.4 and 1.1 | 1.9 and 2.2 | 1.6 | 180 ± 100 nM | 0.51 | 5.65 mg/kg | 190 nM and 1500 nM |  |  | 640 nM and 420 nM | antagonized the stimulant effect of cocaine | > 0.05 | Ki [1, 11]: 400 nM and 260 nM; inhibition of norepinephrine reuptake ([4]; Example 5): reduced inhibition of serotonin and norepinephrine reuptake; dose at maximum effect ([8]; Compound 2 IP, 280-310 min): 12.9 mg/kg; maximum effect estimated from fitted dose-response curve ([8]; Compound 2 IP, 280-310 min, vehicle constant 399): 4581 counts/10 min; duration of stimulant effects ([8]; IP, Compound 2, 3 to 30 mg/kg): Up to Seven; p, two-way ANOVA, effect of Treatment [8]: < 0.001; p, one-way ANOVA, effect of Treatment ([8]; 280-310 min): < 0.001; inhibition of serotonin reuptake [7]: reduced inhibition of serotonin and norepinephrine reuptake; effect on the stimulant effect of cocaine (words) ([9]; listed as Compounds 2, 20 mg/kg): Block the Effects of Cocaine in Mice
3 | CCN(C)C1CC(c2ccc(Cl)c(Cl)c2)c2ccccc21 (stereo not shown) [Compound 3] |  | 270 ± 30 nM | 6.9 |  |  |  | 0.93 | 10.8 mg/kg | 24 ± 7 nM | 1.5 | 0.10 |  |  |  | 
4 | CCNC1CC(c2ccc(Cl)c(Cl)c2)c2ccccc21 (stereo not shown) [Compound 4] | 2 ± 0.8 nM | 61 ± 12 nM | 7.5 |  |  |  | 1.07 | 3.9 mg/kg | 13 ± 4 nM | 6.5 | 0.21 |  |  |  | 
5 | CC(C)(C)NC1CC(c2ccc(Cl)c(Cl)c2)c2ccccc21 (stereo not shown) [Compound 6] |  | 370 ± 170 nM | 2.8 |  |  |  |  | 506 mg/kg | 3100 ± 1200 nM | 4.2 | 8.4 | 310 ± 50 nM | Block the Effects of Cocaine in Mice; also recorded: antagonized the stimulant effect of cocaine | < 0.5 | NE uptake/binding ([4]; ratio): 2.1; NE/DA uptake ([4]; selectivity ratio): 0.84
6 | CN(C1CC(c2ccc(Cl)c(Cl)c2)c2ccccc21)C(C)(C)C (stereo not shown) [Compound 7] |  | 2700 ± 1500 nM | 3.0 |  |  |  |  |  | > 10000 nM |  |  |  | Block the Effects of Cocaine in Mice; also recorded: antagonized the stimulant effect of cocaine; also recorded: lock the effects of cocaine in laboratory mice | < 0.5 | effect on locomotor activity ([6]; mice): inhibited locomotor activity; also recorded: reducing locomotor activity
7 | CC(C)N(C)C1CC(c2ccc(Cl)c(Cl)c2)c2ccccc21 (stereo not shown) [Compound 8] |  | 53 ± 1 nM | 0.24 |  |  | 220 ± 40 nM |  |  |  |  |  |  |  |  | 
8 | CCCNC1CC(c2ccc(Cl)c(Cl)c2)c2ccccc21 (stereo not shown) [Compound 9] | 93 ± 9 nM | 51 ± 21 nM | 1.6 | 1.5 | 0.68 | 32 ± 6 nM |  |  | 240 ± 70 nM | 2.6 | 4.7 | 75 ± 35 nM |  |  | Ki [1, 11]: 110 ± 50 nM
9 | CN(Cc1ccccc1)C1CC(c2ccc(Cl)c(Cl)c2)c2ccccc21 (stereo not shown) [Compound 10] |  | 550 ± 200 nM | 4.6 |  |  |  |  |  | 3700 ± 1300 nM | 21. | 6.7 |  |  |  | 
10 | COC(=O)[C@H]1[C@@H](OC(=O)c2ccccc2)C[C@@H]2CC[C@H]1N2C [cocaine] |  |  |  |  |  |  |  |  |  |  |  |  |  |  | time of maximal stimulant effects ([8]; IP, 20 mg/kg cocaine): during the first 30 minutes; duration of stimulant effects [8, 13]: up to 3 hours; onset of stimulant effects [8, 13]: ≤ 10 min; dose at maximum effect ([8]; cocaine IP, first 30 minutes): 18.3 mg/kg; maximum effect estimated from fitted dose-response curve ([8]; cocaine IP, first 30 minutes, vehicle constant 3172): 6059 counts/10 min; p, two-way ANOVA, effect of Treatment [8]: 0.089; p, one-way ANOVA, effect of Treatment ([8]; 0-30 min): < 0.001
